Tests used:
[1] = molecular target: T1, Transient receptor potential cation channel subfamily V member 1 (Homo sapiens, UniProt Q8NER1); assay: Binding affinity to human TRPV1 assessed as inhibition constant
[2] = molecular target: T1, Transient receptor potential cation channel subfamily V member 1; assay: Antagonist activity at human TRPV1
[3] = Antagonist activity at Xenopus oocytes TRPV1 assessed as inhibition of capsaicin-induced increase in intracellular Ca2+ level; type: cell-based; conditions: Xenopus laevis
[4] = molecular target: T2, Prostaglandin G/H synthase 2 (Homo sapiens, UniProt P35354); assay: Inhibition of COX-2 (unknown origin)
T2 sequence (P35354 whole entry): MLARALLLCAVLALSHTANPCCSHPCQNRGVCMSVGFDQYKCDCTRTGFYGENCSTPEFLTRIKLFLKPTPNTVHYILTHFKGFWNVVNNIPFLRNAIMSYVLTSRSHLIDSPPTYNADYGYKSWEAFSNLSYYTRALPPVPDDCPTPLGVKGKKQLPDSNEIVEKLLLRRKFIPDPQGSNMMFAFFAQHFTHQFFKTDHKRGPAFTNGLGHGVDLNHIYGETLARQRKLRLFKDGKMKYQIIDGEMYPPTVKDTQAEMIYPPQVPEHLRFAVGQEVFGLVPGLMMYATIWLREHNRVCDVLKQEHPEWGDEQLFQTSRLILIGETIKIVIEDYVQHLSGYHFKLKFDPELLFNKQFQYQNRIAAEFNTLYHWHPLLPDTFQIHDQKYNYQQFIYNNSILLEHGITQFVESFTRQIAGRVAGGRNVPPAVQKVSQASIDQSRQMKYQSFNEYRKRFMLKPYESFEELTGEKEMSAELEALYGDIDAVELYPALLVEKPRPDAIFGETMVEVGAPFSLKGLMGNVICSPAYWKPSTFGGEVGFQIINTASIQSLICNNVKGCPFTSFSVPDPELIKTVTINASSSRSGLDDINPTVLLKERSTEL

[5] = molecular target: T3, Transient receptor potential cation channel subfamily V member 1 (Rattus norvegicus, UniProt O35433); assay: Inhibition of rat TRPV1 assessed as inhibition of capsaicin-induced increase in intracellular Ca2+ level; type: cell-based
T3 sequence (O35433 whole entry): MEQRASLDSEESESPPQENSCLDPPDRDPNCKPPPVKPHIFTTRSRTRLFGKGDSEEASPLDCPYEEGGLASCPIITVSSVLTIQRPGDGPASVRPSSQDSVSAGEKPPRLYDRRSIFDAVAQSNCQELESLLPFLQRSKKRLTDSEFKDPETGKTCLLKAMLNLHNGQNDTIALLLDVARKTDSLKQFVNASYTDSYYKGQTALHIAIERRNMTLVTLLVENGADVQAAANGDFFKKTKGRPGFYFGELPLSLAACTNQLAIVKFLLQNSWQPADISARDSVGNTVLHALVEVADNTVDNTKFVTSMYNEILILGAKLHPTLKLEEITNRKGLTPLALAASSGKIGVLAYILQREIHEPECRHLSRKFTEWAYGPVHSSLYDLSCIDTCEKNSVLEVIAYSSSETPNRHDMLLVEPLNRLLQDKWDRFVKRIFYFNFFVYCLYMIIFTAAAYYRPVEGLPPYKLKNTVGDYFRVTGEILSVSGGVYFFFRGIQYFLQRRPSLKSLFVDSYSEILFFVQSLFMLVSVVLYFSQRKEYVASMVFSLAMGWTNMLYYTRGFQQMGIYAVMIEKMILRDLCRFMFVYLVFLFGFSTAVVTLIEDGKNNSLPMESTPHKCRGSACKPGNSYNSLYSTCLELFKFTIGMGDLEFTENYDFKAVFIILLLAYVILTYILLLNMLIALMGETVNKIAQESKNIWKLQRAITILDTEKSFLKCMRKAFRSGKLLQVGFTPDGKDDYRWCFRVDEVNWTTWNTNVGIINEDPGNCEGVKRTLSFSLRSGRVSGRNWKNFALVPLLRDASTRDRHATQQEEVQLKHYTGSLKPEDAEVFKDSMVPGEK

[6] = molecular target: T1, Transient receptor potential cation channel subfamily V member 1; assay: Antagonist activity at capsaicin-induced human TRPV1 activation
[7] = molecular target: T1, Transient receptor potential cation channel subfamily V member 1; assay: Antagonist activity at human TRPV1 expressed in HEK293 cells assessed as inhibition of capsaicin-induced increase in intracellular Ca2+ level incubated for 2 mins by scintillation counter analysis; type: cell-based
[8] = molecular target: T1, Transient receptor potential cation channel subfamily V member 1; assay: Antagonist activity at human TRPV1 expressed in HEK293 cells assessed as inhibition of NADA-induced increase in intracellular Ca2+ level incubated for 2 mins by scintillation counter analysis; type: cell-based
[9] = molecular target: T1, Transient receptor potential cation channel subfamily V member 1; assay: Antagonist activity at human TRPV1 assessed as inhibition of capsaicin-induced increase in intracellular Ca2+ level; type: cell-based
[10] = molecular target: T1, Transient receptor potential cation channel subfamily V member 1; assay: Antagonist activity at human TRPV1 expressed in HEK293 cells assessed as inhibition of capsaicin-induced increase in intracellular Ca2+ level by FLIPR-based Ca2+ assay; type: cell-based
[11] = molecular target: T3, Transient receptor potential cation channel subfamily V member 1; assay: Antagonist activity at rat TRPV1 assessed as inhibition of pH-induced increase in intracellular Ca2+ level; type: cell-based
[12] = molecular target: T1, Transient receptor potential cation channel subfamily V member 1; assay: Antagonist activity at human TRPV1 assessed as inhibition of pH-induced increase in intracellular Ca2+ level; type: cell-based
[13] = molecular target: T1, Transient receptor potential cation channel subfamily V member 1; assay: Antagonist activity at human TRPV1 expressed in HEK293 cells assessed as inhibition of capsaicin-induced Ca2+ influx by fluorescence based assay; type: cell-based
[14] = molecular target: T3, Transient receptor potential cation channel subfamily V member 1; assay: Antagonist activity at rat TRPV1 expressed in CHO cells assessed as inhibition of pH-induced increase in intracellular Ca2+ level by fluorescence based analysis; type: cell-based
Mus musculus = organism: Mus musculus; assay: Antipruritic effect in mouse assessed as reduction in histamine-induced itching duration relative to control; type: functional; parameters: scale not given: the % may be the effect or the level left
[15] = molecular target: T1, Transient receptor potential cation channel subfamily V member 1; assay: Antagonist activity at human TRPV1 assessed as inhibition of AITC-induced increase in intracellular Ca2+ level; type: cell-based

T1 sequence (Q8NER1 whole entry): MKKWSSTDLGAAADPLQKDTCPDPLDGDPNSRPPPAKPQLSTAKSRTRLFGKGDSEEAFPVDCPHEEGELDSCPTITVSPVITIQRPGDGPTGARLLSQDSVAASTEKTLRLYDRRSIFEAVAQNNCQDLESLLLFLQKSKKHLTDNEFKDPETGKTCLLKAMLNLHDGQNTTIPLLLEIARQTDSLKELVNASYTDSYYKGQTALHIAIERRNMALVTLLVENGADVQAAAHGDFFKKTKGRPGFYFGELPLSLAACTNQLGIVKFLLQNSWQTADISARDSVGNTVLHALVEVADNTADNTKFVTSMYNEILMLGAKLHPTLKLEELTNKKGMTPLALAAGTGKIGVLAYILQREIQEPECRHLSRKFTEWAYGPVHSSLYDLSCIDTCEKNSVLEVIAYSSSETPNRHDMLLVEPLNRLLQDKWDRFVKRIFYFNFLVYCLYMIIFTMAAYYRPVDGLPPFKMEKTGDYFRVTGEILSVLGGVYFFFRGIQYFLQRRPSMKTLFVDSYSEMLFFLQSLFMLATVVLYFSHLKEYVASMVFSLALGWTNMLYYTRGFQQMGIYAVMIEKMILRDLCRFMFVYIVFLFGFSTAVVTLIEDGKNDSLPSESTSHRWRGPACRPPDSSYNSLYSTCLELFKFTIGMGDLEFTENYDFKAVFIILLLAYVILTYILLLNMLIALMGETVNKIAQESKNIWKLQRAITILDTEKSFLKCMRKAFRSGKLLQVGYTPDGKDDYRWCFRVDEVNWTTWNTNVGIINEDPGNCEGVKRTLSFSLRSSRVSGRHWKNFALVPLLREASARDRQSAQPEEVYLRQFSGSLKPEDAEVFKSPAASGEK

Question: For `CN(C)C1(Cc2ccccc2)CCN(c2cc(C(F)(F)F)ccc2CNC(=O)Nc2cccc3ncccc23)CC1`, which Ki [1] is on record?
Answer: 32 nM

Question: And the IC50 [2]?
Answer: 10.8 nM

Question: With `C[C@H]1O[C@H](O[C@H]2[C@H](Oc3cc(O)c4c(c3)O[C@H](c3ccc(O)cc3)CC4=O)O[C@H](CO)[C@@H](O)[C@@H]2O)[C@H](O)[C@@H](O)[C@H]1O` as the compound, how does the IC50 [3] read?
Answer: 33300 nM

Question: With `COc1cc(/C=C/C(=O)NS(=O)(=O)c2ccc(-n3nc(C(F)(F)F)cc3-c3ccc(C)cc3)cc2)ccc1O` as the compound, how does the IC50 [4] read?
Answer: 23 nM

Question: And the IC50 [5]?
Answer: 140 nM

Question: For `Cc1cc(C)nc(NC(=O)N2CCN(Cc3ccccc3N3CCCC3)CC2)c1`, which IC50 [6] is on record?
Answer: 9.8 nM

Question: Which results are given for `CCC1(CC)CC(NC(=O)Nc2cccc3c(C)nccc23)c2cc(F)ccc2O1` (stereo unspecified)?
Answer: IC50 [7]: 19 nM; IC50 [8]: 7 nM

Question: With `COc1cc(C(=O)NS(=O)(=O)c2ccc(-n3nc(C(F)(F)F)cc3-c3ccc(C)cc3)cc2)ccc1O` as the compound, how does the IC50 [4] read?
Answer: 11 nM

Question: With `CC1CCN(c2nc(C(F)(F)F)ccc2CNC(=O)Cc2c(F)cccc2Cl)CC1` as the compound, how does the IC50 [9] read?
Answer: 2.6 nM

Question: What does the source list for `O=C(Nc1ccccc1Br)N[C@@H]1CCN(c2ccc(C(F)(F)F)cn2)C1` [SB-705498]?
Answer: IC50 [10]: 3 nM; IC50 [11]: 6 nM

Question: With `O=C(Nc1ccc(Br)cc1)[C@@H]1CCCN1C(=O)Nc1cccc2cnccc12` as the compound, how does the IC50 [9] read?
Answer: 84 nM

Question: And the IC50 [12]?
Answer: 313 nM

Question: For `COc1cc(CNC(=O)COC(=O)/C=C(\C)CC=C(C)C)c(I)cc1O`, which IC50 [9] is on record?
Answer: 90 nM

Question: Which IC50 [13] does the source give for `C=Cc1cc([C@@H](C)NC(=O)/C(C)=C/c2ccc(C(C)(C)C)cc2)ccc1NS(C)(=O)=O` here?
Answer: 22 nM

Question: Which IC50 [14] does the source give for `O=C1/C(=N\Nc2ccccc2)C(C(F)(F)C(F)(F)F)=NN1c1ccccc1` here?
Answer: 140 nM

Question: For `O=C(C(c1ccccc1)N1C(=O)CCC1=O)N1CCN(c2cccc(C(F)(F)F)c2)CC1` (stereo unspecified), which IC50 [9] is on record?
Answer: 45000 nM

Question: Which Activity (Mus musculus) does the source give for `CCCCCCCCCCCC(=O)OCC(=O)NCc1cc(OC)c(O)cc1I` here?
Answer: <1%

Question: Which results are given for `O=C1C[C@@H](c2ccc(O[C@@H]3O[C@H](CO)[C@@H](O)[C@H](O)[C@H]3O)cc2)Oc2cc(O)ccc21` [LIQUIRITIN]?
Answer: IC50 [9]: 9800 nM; IC50 [15]: 16200 nM

Reference: ChEMBL document CHEMBL5518160, “Progress in the development of TRPV1 small-molecule antagonists: Novel Strategies for pain management” (Eur J Med Chem, 2023)
